Assay results from patent publication US8354447B2, “mGLU receptors antagonists for treating disorders associated with mGLU receptors including addiction and depression” (The Scripps Research Institute, priority 2002, dated 2013).

What was measured:
male Wistar rats = assay: Nicotine self-administration and food-maintained responding on a fixed ratio schedule in rats; type: in vivo, rat
Experimental: Two additional groups of rats were allowed to respond for food (45 mg Noyes food pellet) under a FR5 TO20 sec (n=10), and a FR5 TO210 sec (n=10) schedule. The two different schedules were employed to allow assessment of the effects of MPEP on responding for food under a reinforcement schedule (FR5 TO20 sec) identical to that used for nicotine, and under a reinforcement schedule (FR5 TO210) that equated response rates for food to those seen for nicotine. […] All test sessions were conducted for one hour per day, five days per week.
After acquiring stable nicotine self-administration at either 0.01 mg/kg/infusion (n=9) or 0.03 mg/kg/infusion (n=9), or stable food-maintained responding on the FR5 TO 20 sec schedule (n=10) or the FR5 TO210 sec schedule (n=10), drug testing was initiated. MPEP (0, 1, 3 and 9 mg/kg) was administered intraperitoneally 30 minutes before the session, according to a Latin Square design, with at least six days elapsing between each test dose.

Male DBA/2J mice = assay: Intravenous nicotine self-administration in drug-naive mice; type: in vivo, mouse
Experimental: Acute self-administration of nicotine was carried out using a previously described method (Semenova et al. 1995, 1999; Kuzmin et al. 1996a, 1997). The tails of the mice were fixed to the surface of the apparatus during the testing sessions to allow drug delivery; the fixing of the tail allowed the mice to move all of their four paws, head and entire body. […] The only cue associated with the delivery of the drug or vehicle infusion was the noise of the pump. Mice were tested either once or twice, with approximately one month between each test. The second test only occurred in a subset of the original set of mice (2-7 pairs of mice from each of the original groups). This was done to increase the number of subjects/condition, and involved randomly assigning and testing these mice under a different set of conditions than in the original test (i.e., different nicotine and/or MPEP dose).
Saline or one of four nicotine doses (0.016, 0.048, 0.16, 0.48 μg/inf) were made available to different groups of animals. Each group consisted of 9-17 pairs of animals, including 2-7 mice per group that had previously undergone one testing session at least one month previously (see above). Pre-treatment with MPEP (0, 5, 10, 20 mg/kg intraperitoneally) occurred 15 minutes prior to the initiation of the test session.
Data analyses were based on the comparison of both active and passive mouse nose-pokes in each pair, using the formula: R=log(AT/PT)−log(ABL/PBL), where (AT/PT) is the ratio of the total number of active versus passive mouse nose-pokes during the 30-min test, and (ABL/PBL) is the ratio of the total number of active versus passive mouse nose-pokes during the 10-min pre-test. […] Some data-points (9/237 pairs of mice) were excluded from the final analyses based on whether or not they lay within 2 standard deviations of the group mean for that specific condition. Nicotine self-administration data, obtained after saline pre-treatment, were analyzed using a one-way ANOVA with nicotine (4 levels) defined as the between-subjects factor. R-criterion data were analyzed using two-way ANOVAs with MPEP dose (4 levels) and nicotine dose (4 levels) defined as the between-subjects factors. Pre-planned R-criterion data analyses were performed using one-way ANOVAs for each available dose of self-administered nicotine and saline, with MPEP dose (4 levels) defined as the between-subject factor. Appropriate individual comparisons were performed using the Student-Newman-Keuls post hoc test. […] Body weights and pre-test nose-poke activity levels were analyzed with three-way ANOVAs (nicotine dose, MPEP dose and mouse, i.e. active/passive, defined as between-subjects factors).

Wistar rats [1] = assay: Cocaine, nicotine and food responding under a progressive ratio schedule; type: in vivo, rat
Source text: Under a fixed ratio schedule of reinforcement, as described above, an animal responds a ‘fixed’ number of times on an active lever to obtain a drug infusion. Fixed ratio (FR) schedules of reinforcement provide important information on whether a drug is reinforcing. […] By determining how hard an animal is willing to work for a drug, while limiting total intake, the PR schedule allows better separation of motivation for drug consumption from possible satiating effects of cumulative drug doses (Stafford et al. 1998). Such characteristics result in theoretically different interpretations of the factors controlling drug-seeking behavior on a PR compared with a FR. […] After acquisition of cocaine or nicotine self-administration under an FR, as described above, rats were switched to a PR schedule of reinforcement in which the following sequence of level presses was required to receive each subsequent infusion of nicotine or cocaine: 5, 10, 17, 24, 32, 42, 56, 73, 95, 124, 161, 208, etc. Rats were injected with MPEP (0, 1, 3 or 9 mg/kg) 30 min prior to each PR session. All PR sessions lasted for 3 h. All subjects reached breaking-points during the 3 hour session.

mice = settings: Chiamulera et al. 2001; cited from earlier work
Wistar rats [2] = assay: Nicotine self-administration under a fixed ratio schedule (LY341495, LY341495 and MPEP); settings: MPEP 1 mg/kg alone
[3] = MPEP 5 mg/kg, Nicotine 0 μg/inf
[4] = MPEP 5 mg/kg, Nicotine 0.016 μg/inf
[5] = MPEP 5 mg/kg, Nicotine 0.048 μg/inf
[6] = MPEP 5 mg/kg, Nicotine 0.16 μg/inf
[7] = MPEP 5 mg/kg, Nicotine 0.48 μg/inf
[8] = MPEP 10 mg/kg, Nicotine 0 μg/inf
[9] = MPEP 10 mg/kg, Nicotine 0.016 μg/inf
[10] = MPEP 10 mg/kg, Nicotine 0.048 μg/inf
[11] = MPEP 10 mg/kg, Nicotine 0.16 μg/inf
[12] = MPEP 10 mg/kg, Nicotine 0.48 μg/inf
[13] = MPEP 20 mg/kg, Nicotine 0 μg/inf
[14] = MPEP 20 mg/kg, Nicotine 0.016 μg/inf
[15] = MPEP 20 mg/kg, Nicotine 0.048 μg/inf
[16] = MPEP 20 mg/kg, Nicotine 0.16 μg/inf
[17] = MPEP 20 mg/kg, Nicotine 0.48 μg/inf

Cc1cccc(C#Cc2ccccc2)n1 [MPEP, 2-methyl-6-(phenylethynyl)-pyridine]
Number of reinforcers earned during the entire 1 hour session (male Wistar rats; 1 mg/kg MPEP, 0.01 mg/kg/inf nic, FR5 TO20 sec): 21 ± 3.1
Number of reinforcers earned during the entire 1 hour session (male Wistar rats; 1 mg/kg MPEP, 0.03 mg/kg/inf nic, FR5 TO20 sec): 13 ± 1.9
Number of reinforcers earned during the entire 1 hour session (male Wistar rats; 1 mg/kg MPEP, 45 mg food pellet, FR5 TO20 sec): 131.3 ± 8.2
Number of reinforcers earned during the entire 1 hour session (male Wistar rats; 1 mg/kg MPEP, 45 mg food pellet, FR5 TO210 sec): 16.3 ± 0.3
Number of reinforcers earned during the entire 1 hour session (male Wistar rats; 3 mg/kg MPEP, 0.01 mg/kg/inf nic, FR5 TO20 sec): 11 ± 2.7
Number of reinforcers earned during the entire 1 hour session (male Wistar rats; 3 mg/kg MPEP, 0.03 mg/kg/inf nic, FR5 TO20 sec): 11.4 ± 1.2
Number of reinforcers earned during the entire 1 hour session (male Wistar rats; 3 mg/kg MPEP, 45 mg food pellet, FR5 TO20 sec): 122.2 ± 7.4
Number of reinforcers earned during the entire 1 hour session (male Wistar rats; 3 mg/kg MPEP, 45 mg food pellet, FR5 TO210 sec): 15.2 ± 0.5
Number of reinforcers earned during the entire 1 hour session (male Wistar rats; 9 mg/kg MPEP, 0.01 mg/kg/inf nic, FR5 TO20 sec): 9.1 ± 3.0
Number of reinforcers earned during the entire 1 hour session (male Wistar rats; 9 mg/kg MPEP, 0.03 mg/kg/inf nic, FR5 TO20 sec): 4.8 ± 1.5
Number of reinforcers earned during the entire 1 hour session (male Wistar rats; 9 mg/kg MPEP, 45 mg food pellet, FR5 TO20 sec): 109 ± 12.98
Number of reinforcers earned during the entire 1 hour session (male Wistar rats; 9 mg/kg MPEP, 45 mg food pellet, FR5 TO210 sec): 15.2 ± 0.6
nicotine self-administration (male Wistar rats; 3 and 9 mg/kg MPEP, 0.01 mg/kg/infusion nicotine): significantly reduced self-administration of the 0.01 mg/kg/infusion nicotine dose relative to the vehicle condition
nicotine self-administration (male Wistar rats; MPEP 1, 3, 9 mg/kg, 0.03 mg/kg/inf nicotine): decreasing self-administration of the 0.03 mg/kg/inf dose only at 9 mg/kg
inactive lever presses (male Wistar rats; MPEP 1-9 mg/kg): no effect of MPEP on inactive lever presses for any of the reinforcers
total self-injected nicotine dose (Male DBA/2J mice; 0.048 μg/inf nicotine): no significant effect of MPEP on total self-injected nicotine dose
R-criterion (Male DBA/2J mice; 20 mg/kg MPEP, 0.048 μg/inf nicotine): a trend for 20 mg/kg MPEP to decrease the R-criterion below zero
nose-pokes, active pre-test (Male DBA/2J mice; [3]): 8.19 ± 1.03 responses per minute
nose-pokes, active test (Male DBA/2J mice; [3]): 4.99 ± 1.17 responses per minute
nose-pokes, passive pre-test (Male DBA/2J mice; [3]): 8.38 ± 0.96 responses per minute
nose-pokes, passive test (Male DBA/2J mice; [3]): 6.41 ± 1.38 responses per minute
nose-pokes, active pre-test (Male DBA/2J mice; [4]): 7.86 ± 0.87 responses per minute
nose-pokes, active test (Male DBA/2J mice; [4]): 2.62 ± 0.49 responses per minute
nose-pokes, passive pre-test (Male DBA/2J mice; [4]): 8.01 ± 0.91 responses per minute
nose-pokes, passive test (Male DBA/2J mice; [4]): 3.46 ± 0.74 responses per minute
nose-pokes, active pre-test (Male DBA/2J mice; [5]): 9.13 ± 1.37 responses per minute
nose-pokes, active test (Male DBA/2J mice; [5]): 3.43 ± 0.67 responses per minute
nose-pokes, passive pre-test (Male DBA/2J mice; [5]): 8.93 ± 1.36 responses per minute
nose-pokes, passive test (Male DBA/2J mice; [5]): 4.45 ± 1.06 responses per minute
nose-pokes, active pre-test (Male DBA/2J mice; [6]): 8.32 ± 0.94 responses per minute
nose-pokes, active test (Male DBA/2J mice; [6]): 4.67 ± 0.95 responses per minute
nose-pokes, passive pre-test (Male DBA/2J mice; [6]): 8.48 ± 3.31 responses per minute
nose-pokes, passive test (Male DBA/2J mice; [6]): 4.32 ± 2.37 responses per minute
nose-pokes, active pre-test (Male DBA/2J mice; [7]): 8.12 ± 1.17 responses per minute
nose-pokes, active test (Male DBA/2J mice; [7]): 3.04 ± 0.73 responses per minute
nose-pokes, passive pre-test (Male DBA/2J mice; [7]): 8.58 ± 1.38 responses per minute
nose-pokes, passive test (Male DBA/2J mice; [7]): 3.25 ± 0.88 responses per minute
nose-pokes, active pre-test (Male DBA/2J mice; [8]): 7.95 ± 0.99 responses per minute
nose-pokes, active test (Male DBA/2J mice; [8]): 4.92 ± 1.1 responses per minute
nose-pokes, passive pre-test (Male DBA/2J mice; [8]): 8.00 ± 1.06 responses per minute
nose-pokes, passive test (Male DBA/2J mice; [8]): 5.86 ± 1.56 responses per minute
nose-pokes, active pre-test (Male DBA/2J mice; [9]): 7.79 ± 0.83 responses per minute
nose-pokes, active test (Male DBA/2J mice; [9]): 6.48 ± 1.05 responses per minute
nose-pokes, passive pre-test (Male DBA/2J mice; [9]): 8.22 ± 0.87 responses per minute
nose-pokes, passive test (Male DBA/2J mice; [9]): 4.26 ± 0.94 responses per minute
nose-pokes, active pre-test (Male DBA/2J mice; [10]): 7.43 ± 0.98 responses per minute
nose-pokes, active test (Male DBA/2J mice; [10]): 3.92 ± 1.18 responses per minute
nose-pokes, passive pre-test (Male DBA/2J mice; [10]): 8.06 ± 1.39 responses per minute
nose-pokes, passive test (Male DBA/2J mice; [10]): 5.83 ± 1.72 responses per minute
nose-pokes, active pre-test (Male DBA/2J mice; [11]): 7.12 ± 0.66 responses per minute
nose-pokes, active test (Male DBA/2J mice; [11]): 4.19 ± 0.81 responses per minute
nose-pokes, passive pre-test (Male DBA/2J mice; [11]): 7.20 ± 0.69 responses per minute
nose-pokes, passive test (Male DBA/2J mice; [11]): 4.62 ± 0.82 responses per minute
nose-pokes, active pre-test (Male DBA/2J mice; [12]): 7.49 ± 0.86 responses per minute
nose-pokes, active test (Male DBA/2J mice; [12]): 3.58 ± 0.73 responses per minute
nose-pokes, passive pre-test (Male DBA/2J mice; [12]): 7.48 ± 0.88 responses per minute
nose-pokes, passive test (Male DBA/2J mice; [12]): 3.81 ± 0.47 responses per minute
nose-pokes, active pre-test (Male DBA/2J mice; [13]): 6.98 ± 1.18 responses per minute
nose-pokes, active test (Male DBA/2J mice; [13]): 5.96 ± 1.69 responses per minute
nose-pokes, passive pre-test (Male DBA/2J mice; [13]): 8.50 ± 1.43 responses per minute
nose-pokes, passive test (Male DBA/2J mice; [13]): 6.33 ± 1.66 responses per minute
nose-pokes, active pre-test (Male DBA/2J mice; [14]): 7.10 ± 0.87 responses per minute
nose-pokes, active test (Male DBA/2J mice; [14]): 5.48 ± 1.09 responses per minute
nose-pokes, passive pre-test (Male DBA/2J mice; [14]): 7.35 ± 0.85 responses per minute
nose-pokes, passive test (Male DBA/2J mice; [14]): 8.77 ± 1.85 responses per minute
nose-pokes, active pre-test (Male DBA/2J mice; [15]): 8.36 ± 1.07 responses per minute
nose-pokes, active test (Male DBA/2J mice; [15]): 3.56 ± 1.04 responses per minute
nose-pokes, passive pre-test (Male DBA/2J mice; [15]): 8.31 ± 1.28 responses per minute
nose-pokes, passive test (Male DBA/2J mice; [15]): 5.29 ± 1.11 responses per minute
nose-pokes, active pre-test (Male DBA/2J mice; [16]): 7.50 ± 1.25 responses per minute
nose-pokes, active test (Male DBA/2J mice; [16]): 5.06 ± 1.52 responses per minute
nose-pokes, passive pre-test (Male DBA/2J mice; [16]): 7.56 ± 1.32 responses per minute
nose-pokes, passive test (Male DBA/2J mice; [16]): 7.97 ± 1.76 responses per minute
nose-pokes, active pre-test (Male DBA/2J mice; [17]): 7.31 ± 0.98 responses per minute
nose-pokes, active test (Male DBA/2J mice; [17]): 4.67 ± 1.22 responses per minute
nose-pokes, passive pre-test (Male DBA/2J mice; [17]): 7.08 ± 0.94 responses per minute
nose-pokes, passive test (Male DBA/2J mice; [17]): 4.35 ± 0.98 responses per minute
nicotine self-administration (R-criterion) (Male DBA/2J mice; MPEP 5, 10, 20 mg/kg, 0.048 μg/inf nicotine): significantly reduced nicotine self-administration at all doses tested
nose-poke responding (Male DBA/2J mice; active mice, 0.048 μg/inf nicotine): significantly decreased nose-poke responding in the active mice
responding for food (Wistar rats [1]; MPEP 1-9 mg/kg, PR schedule): no statistically significant effect on responding for food
responding under a progressive ratio schedule (motivation) (Wistar rats [1]; MPEP 1-9 mg/kg, cocaine, nicotine, food): decreased the motivation of rats to obtain cocaine or nicotine without affecting their motivation for food
break point (Wistar rats [1]; PR schedule, cocaine and nicotine): significantly lowered the break point for cocaine and nicotine
cocaine self-administration (mice): dose-dependent reduction in cocaine self-administration without affecting responding for food
cocaine or nicotine self-administration (Wistar rats [2]): has no effects on cocaine or nicotine self-administration
